Values quoted from earlier work in patent publication US4127526A, “Novel tetradecapeptides, intermediates therefor, and compositions and methods employing said tetradecapeptides” (priority 1977, dated 1978).

Tests used:
[1] = injected directly into the brain of the rat
[2] = test system: brain opiate receptor sites

Question: With “H-Tyr-Gly-Gly-Phe-Met-OH [methionine enkephalin]” as the substance, how does the “activity in bioassays for opiate activity” value (opiate activity) read?
Answer: The value was “very active”.

Question: And the analgesic activity [1]?
Answer: Its analgesic activity is “weak analgesic agent of short duration”.

Question: What about the “binding to partially purified brain opiate receptor sites” value [2] of the same substance?
Answer: Its value is “binds stereo-specifically”.
